Source: patent publication US20230117470A1, “SUBSTITUTED PYRAZOLE COMPOUNDS AS TOLL RECEPTOR INHIBITORS” (BRISTOL-MYERS SQUIBB COMPANY, priority 2019, published 2023)
pIC50: −log10 of the molar value. Where a name gives a salt, the structure may show the parent alone.

Experiments:
Type in all cases: cell-based
[1] = molecular target: T1, human TLR8 (Homo sapiens, UniProt Q9NR97); experiment: TLR8 inhibition reporter assay (HEK-Blue cells, SEAP reporter, R848 stimulation); details: HEK-Blue cells overexpressing human TLR8, SEAP reporter, R848 15.9 μM
T1 construct: host or cells: HEK-Blue cells
T1 sequence (Q9NR97 27-1041): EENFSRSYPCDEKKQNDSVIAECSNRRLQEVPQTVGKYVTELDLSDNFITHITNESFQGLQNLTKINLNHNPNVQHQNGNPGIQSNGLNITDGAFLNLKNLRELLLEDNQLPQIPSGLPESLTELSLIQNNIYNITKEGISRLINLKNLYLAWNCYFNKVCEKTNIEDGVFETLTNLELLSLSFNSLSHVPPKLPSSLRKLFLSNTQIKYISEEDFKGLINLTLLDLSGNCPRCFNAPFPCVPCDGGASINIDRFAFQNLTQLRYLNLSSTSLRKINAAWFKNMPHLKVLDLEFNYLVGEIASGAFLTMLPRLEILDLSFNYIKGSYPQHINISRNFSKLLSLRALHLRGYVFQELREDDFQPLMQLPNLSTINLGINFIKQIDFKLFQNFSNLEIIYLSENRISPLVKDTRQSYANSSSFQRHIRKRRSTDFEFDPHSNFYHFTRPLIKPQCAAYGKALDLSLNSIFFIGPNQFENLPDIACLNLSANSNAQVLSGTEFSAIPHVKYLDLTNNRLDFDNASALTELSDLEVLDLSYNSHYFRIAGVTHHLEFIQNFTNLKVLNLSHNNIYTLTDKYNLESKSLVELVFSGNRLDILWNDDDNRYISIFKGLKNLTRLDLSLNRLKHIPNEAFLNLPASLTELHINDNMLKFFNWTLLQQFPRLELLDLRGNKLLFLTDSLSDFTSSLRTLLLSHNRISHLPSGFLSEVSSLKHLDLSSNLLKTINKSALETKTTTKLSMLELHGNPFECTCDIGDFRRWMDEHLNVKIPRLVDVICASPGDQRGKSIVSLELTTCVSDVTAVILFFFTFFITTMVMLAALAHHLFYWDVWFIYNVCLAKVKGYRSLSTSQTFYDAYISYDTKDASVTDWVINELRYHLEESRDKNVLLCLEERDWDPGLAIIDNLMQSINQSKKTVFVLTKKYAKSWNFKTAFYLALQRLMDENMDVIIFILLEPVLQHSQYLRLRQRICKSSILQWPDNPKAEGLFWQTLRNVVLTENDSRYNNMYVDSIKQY
Outline: (§1)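 Percent inhibition of agonist-induced SEAP, set between agonist+DMSO wells and known-inhibitor wells, after 22 h at 37° C. Compounds (0.05 nM-50 μM final) were added 30 min at room temperature before ligand: gardiquimod 7.5 μM for TLR7, R848 15.9 μM for TLR8, ODN2006 5 nM for TLR9. Human receptors overexpressed in HEK-Blue reporter cells.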

[2] = molecular target: T2, human TLR9 (Homo sapiens, UniProt Q9NR96); experiment: TLR9 inhibition reporter assay (HEK-Blue cells, SEAP reporter, ODN2006 stimulation); details: HEK-Blue cells overexpressing human TLR9, SEAP reporter, ODN2006 5 nM
T2 construct: host or cells: HEK-Blue cells
T2 sequence (Q9NR96 26-1032): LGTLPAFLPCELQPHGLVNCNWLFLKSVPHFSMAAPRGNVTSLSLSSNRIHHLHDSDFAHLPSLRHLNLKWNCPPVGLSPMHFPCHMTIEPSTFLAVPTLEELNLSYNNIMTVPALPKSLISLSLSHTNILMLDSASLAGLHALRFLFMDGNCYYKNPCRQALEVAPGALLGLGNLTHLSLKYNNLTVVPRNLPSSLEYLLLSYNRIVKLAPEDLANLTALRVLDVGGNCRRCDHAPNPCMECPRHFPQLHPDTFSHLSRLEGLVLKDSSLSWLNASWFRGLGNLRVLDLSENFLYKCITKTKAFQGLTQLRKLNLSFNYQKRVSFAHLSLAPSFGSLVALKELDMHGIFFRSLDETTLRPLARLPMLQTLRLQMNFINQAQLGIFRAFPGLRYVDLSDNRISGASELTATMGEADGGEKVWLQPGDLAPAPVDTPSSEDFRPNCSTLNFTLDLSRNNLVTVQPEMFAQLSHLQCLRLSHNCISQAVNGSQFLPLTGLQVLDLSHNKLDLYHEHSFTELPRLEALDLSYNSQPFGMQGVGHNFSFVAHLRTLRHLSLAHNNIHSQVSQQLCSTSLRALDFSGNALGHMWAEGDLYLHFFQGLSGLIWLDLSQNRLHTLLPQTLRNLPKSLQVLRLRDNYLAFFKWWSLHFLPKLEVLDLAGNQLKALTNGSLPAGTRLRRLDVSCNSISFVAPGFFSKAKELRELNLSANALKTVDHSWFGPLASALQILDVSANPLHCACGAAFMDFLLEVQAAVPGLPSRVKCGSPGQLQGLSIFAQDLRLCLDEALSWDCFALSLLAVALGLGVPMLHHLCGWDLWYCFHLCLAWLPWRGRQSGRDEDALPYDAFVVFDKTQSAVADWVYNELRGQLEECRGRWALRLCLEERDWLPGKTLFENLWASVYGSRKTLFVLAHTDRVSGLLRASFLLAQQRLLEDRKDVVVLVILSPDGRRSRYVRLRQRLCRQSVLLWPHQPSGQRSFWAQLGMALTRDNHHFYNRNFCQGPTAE
Outline: as §1

[3] = molecular target: T3, human TLR7 (Homo sapiens, UniProt Q9NYK1); experiment: TLR7 inhibition reporter assay (HEK-Blue cells, SEAP reporter, gardiquimod stimulation); details: HEK-Blue cells overexpressing human TLR7, SEAP reporter, gardiquimod 7.5 μM
T3 construct: host or cells: HEK-Blue cells
T3 sequence (Q9NYK1 27-1049): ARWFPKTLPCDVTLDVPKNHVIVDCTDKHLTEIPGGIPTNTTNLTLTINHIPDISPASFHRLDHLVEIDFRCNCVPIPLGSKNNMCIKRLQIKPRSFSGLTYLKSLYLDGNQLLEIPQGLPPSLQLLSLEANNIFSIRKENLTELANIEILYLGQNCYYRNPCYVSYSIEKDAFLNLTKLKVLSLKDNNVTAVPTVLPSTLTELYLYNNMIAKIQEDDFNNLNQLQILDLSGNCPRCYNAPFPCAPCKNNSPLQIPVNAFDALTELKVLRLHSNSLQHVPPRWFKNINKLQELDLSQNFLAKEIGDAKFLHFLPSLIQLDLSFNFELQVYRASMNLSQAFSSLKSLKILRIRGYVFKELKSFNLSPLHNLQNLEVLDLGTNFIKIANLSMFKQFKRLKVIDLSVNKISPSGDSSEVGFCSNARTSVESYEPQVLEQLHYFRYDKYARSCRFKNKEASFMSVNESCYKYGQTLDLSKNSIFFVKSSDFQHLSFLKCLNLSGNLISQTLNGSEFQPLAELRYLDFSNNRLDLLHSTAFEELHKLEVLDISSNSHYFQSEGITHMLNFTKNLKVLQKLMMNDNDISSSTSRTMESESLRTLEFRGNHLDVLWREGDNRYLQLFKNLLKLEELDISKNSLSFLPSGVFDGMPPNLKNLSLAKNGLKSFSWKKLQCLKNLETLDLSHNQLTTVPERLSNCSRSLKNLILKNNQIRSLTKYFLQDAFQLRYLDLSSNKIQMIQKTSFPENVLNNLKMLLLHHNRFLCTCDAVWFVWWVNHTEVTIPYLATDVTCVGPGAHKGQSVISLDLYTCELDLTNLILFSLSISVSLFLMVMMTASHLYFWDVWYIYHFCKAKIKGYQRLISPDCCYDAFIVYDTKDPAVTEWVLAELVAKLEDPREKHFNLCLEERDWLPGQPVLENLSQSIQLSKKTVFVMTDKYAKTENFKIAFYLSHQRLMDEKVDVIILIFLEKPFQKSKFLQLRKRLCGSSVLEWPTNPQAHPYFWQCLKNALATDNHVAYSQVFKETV
Outline: as §1

| Compound | pIC50 [1] | pIC50 [2] | pIC50 [3] |
| --- | --- | --- | --- |
| CNC(=O)CN1CCC(NC(=O)c2n[nH]c(-c3cc(C)c4ncnn4c3)c2C(C)C)CC1 [compound 177] | 8.25 | 5.01 | 8.49 |
| Cc1ncc(CN[C@H]2CC[C@H](NC(=O)c3n[nH]c(-c4cc(C)c5ncnn5c4)c3C(C)C)CC2)cn1 [Example 104] | 8.55 | 5.25 | 8.70 |
| Cc1cc(-c2[nH]nc(-c3ccc(N(C)C)cc3)c2C(C)C)cn2ncnc12 [Example 243] | 8.68 | 4.53 | 7.79 |
| Cc1cc(-c2[nH]nc(C(=O)N3CCN(c4ccncc4)CC3)c2C(C)C)cn2ncnc12 [Example 14] | 9.03 | 5.42 | 8.72 |
| Cc1cc(-c2[nH]nc(C(=O)N[C@H]3CC[C@@H](NCc4cccnc4)CC3)c2C(C)C)cn2ncnc12 [Example 95] | 7.62 | 4.36 | 7.93 |
| Cc1cc(-c2[nH]nc(C(=O)NC3CCN(CCC(F)(F)F)CC3)c2C(C)C)cn2ncnc12 [Example 69, 4-isopropyl-5-(8-methyl-[1,2,4]triazolo[1,5-a]pyridin-6-yl)-N-(1-(3,3,3-trifluoropropyl)piperidin-4-yl)-1H-pyrazole-3-carboxamide] | 7.45 | 5.20 | 8.38 |
| Cc1cc(-c2[nH]nc(C(=O)NC3CCN(CC(F)(F)F)CC3)c2C(C)C)cn2ncnc12 [Example 173] | 8.12 | 5.11 | 8.07 |
| COc1cc(-c2[nH]nc(-c3cnc(C4CCN(C5CCOCC5)CC4)cn3)c2C(C)C)cn2ncnc12 [Example 380] | 8.29 | 5.19 | 7.94 |
| Cc1cc(-c2[nH]nc(C(=O)N[C@H]3CC[C@H](N)CC3)c2C(C)C)cn2ncnc12 [Example 46] | 9.96 | 5.60 | 9.24 |

More lines, in order of rising pIC50 [1], values ahead:

| pIC50 [1] | pIC50 [2] | pIC50 [3] | Compound |
| --- | --- | --- | --- |
| 7.38 | 5.26 | 8.62 | Cc1cc(-c2[nH]nc(C(=O)N[C@H]3CC[C@@H](NC4CCOC(C)(C)C4)CC3)c2C(C)C)cn2ncnc12 (stereo partly drawn) [Example 97] |
| 7.71 | 5.03 | 8.27 | Cc1cc(-c2[nH]nc(C(=O)NCC3CN(CC(C)(C)O)CCO3)c2C(C)C)cn2ncnc12 (stereo not drawn) [Example 143] |
| 7.75 | < 4.30 | 8.27 | COc1cc(-c2[nH]nc(-c3ccc(C4CCN(CC5(C)COC5)CC4)cc3)c2C(C)C)cn2ncnc12 [Example 312] |
| 7.80 | < 4.30 | 8.47 | Cc1cc(-c2[nH]nc(C(=O)NC3CCC(O)CC3)c2C(C)C)cn2ncnc12 (stereo not drawn) [Example 32] |
| 7.80 | 4.69 | 8.59 | Cc1cc(-c2[nH]nc(C(=O)N[C@H]3CCCN(C)C3)c2C(C)C)cn2ncnc12 [Example 162] |
| 8.31 | 4.82 | 8.16 | Cc1cc(-c2[nH]nc(-c3nc4c(s3)CN(CC(C)C)CC4)c2C(C)C)cn2ncnc12 [Example 255] |
| 8.45 | 4.82 | 8.14 | Cc1cc(-c2[nH]nc(C(=O)NCC3CN(CC(C)(C)C)CCO3)c2C(C)C)cn2ncnc12 (stereo not drawn) [Example 144] |
| 8.47 | 4.59 | 8.33 | Cc1cc(-c2[nH]nc(-c3ccc4c(c3)CCNC4)c2C(C)C)cn2ncnc12 [Example 213, 6-(4-isopropyl-5-(8-methyl-[1,2,4]triazolo[1,5-a]pyridin-6-yl)-1H-pyrazol-3-yl)-1,2,3,4-tetrahydroisoquinoline, HCl] |
| 8.55 | 5.20 | 8.34 | COc1cc(-c2[nH]nc(-c3cnc(C4CCN(CC5CCOCC5)CC4)cn3)c2C(C)C)cn2ncnc12 [Example 376] |
| 8.63 | 5.01 | 8.63 | CCN1CCC(c2cnc(-c3n[nH]c(-c4cc(OC)c5ncnn5c4)c3C(C)C)cn2)CC1 [Example 382] |
| 8.65 | 4.77 | 8.07 | CCN1CCc2nc(-c3n[nH]c(-c4cc(OC)c5ncnn5c4)c3C(C)C)sc2C1 [Example 261] |
| 8.66 | 6.06 | 9.11 | COCCN1CCC(NC(=O)c2n[nH]c(-c3cc(C)c4ncnn4c3)c2C(C)C)CC1 [Example 171, 4-isopropyl-N-(1-(2-methoxyethyl)piperidin-4-yl)-5-(8-methyl-[1,2,4]triazolo[1,5-a]pyridin-6-yl)-1H-pyrazole-3-carboxamide] |
| 9.08 | 4.67 | 8.21 | COCCN1CCC(c2ccc(-c3n[nH]c(-c4cc(OC)c5ncnn5c4)c3C(C)C)cc2)CC1 [Example 318, 6-(4-isopropyl-3-(4-(1-(2-methoxyethyl)piperidin-4-yl)phenyl)-1H-pyrazol-5-yl)-8-methoxy-[1,2,4]triazolo[1,5-a]pyridine] |
